The values that follow come from patent publication US9271960B2, “Tetrahydrocarbazoles as active agents for inhibiting VEGF production by translational control” (PTC Therapeutics, Inc., priority 2004, dated 2016).

Counter-ions that a name gives are not always drawn.

For one test, the system named is VEGF. Nature of the test: Hypoxia-inducible endogenous VEGF expression ELISA in HeLa cells. The format is cell-based. The settings on record: Homo sapiens, HeLa, compounds 1-155, hypoxic conditions (1% O2), VEGF protein by ELISA, read-out: ELISA Activity. On the procedure:
The ability of compounds of the invention to modulate hypoxia-inducible endogenous VEGF expression is analyzed as follows. VEGF protein levels are monitored by an ELISA assay (R&D Systems). Briefly, HeLa cells are cultured for 24-48 hours under hypoxic conditions (1% O2, 5% CO2, balanced with nitrogen) in the presence or absence of a compound of the invention. The conditioned media is then assayed by ELISA, and the concentration of VEGF is calculated from the standard ELISA curve of each assay.
A dose-response analysis is performed using the ELISA assay and conditions described above. A series of different concentrations (e.g., seven) are analyzed. In parallel, a dose-response cytotoxicity assay is performed using Cell Titer Glo (Promega) under the same conditions as the ELISA to ensure that the inhibition of VEGF expression is not due to cytotoxicity. Dose-response curves are plotted using percentage inhibition versus concentration of the compound, and EC50 and CC50 values are generated for each compound with the maximal inhibition set as 100% and the minimal inhibition as 0%.
Compounds 156-188 in Table 1 are commercially available. In Table 1, each of the represented compounds is followed by one to five stars.
`COC(=O)c1ccc2[nH]c3c(c2c1)CCCC3n1cccc1` (centres unmarked) [Compound 115, 8-Pyrrol-1-yl-6,7,8,9-tetrahydro-5H-carbazole-3-carboxylic acid methyl ester]: the EC50 was over 1000 nM.
Same read-out and setting: the value for `Brc1ccc2[nH]c3c(c2c1)CCCC3n1ccc(CN2CCOCC2)c1` (centres unmarked) [Compound 64, 6-Bromo-1-(3-morpholin-4-ylmethyl-pyrrol-1-yl)-2,3,4,9-tetrahydro-1H-carbazole] was 200 to 1000 nM; that for `Fc1cccc(NC2CCCc3c2[nH]c2ccc(Br)cc32)c1F` (centres unmarked) [Compound 32, (6-Bromo-2,3,4,9-tetrahydro-1H-carbazol-1-yl)-(2,3-difluoro-phenyl)-amine] was 10 to 40 nM; that for `O=C1CCCc2c1[nH]c1ccc(C(F)(F)F)cc21` [Compound 60, 6-Trifluoromethyl-2,3,4,9-tetrahydro-carbazol-1-one] was 200 to 1000 nM.
Same read-out and setting: the value for `O=C(Nc1ccccc1)NC1CCCc2c1[nH]c1ccc(Br)cc21` (centres unmarked) [Compound 81, 1-(6-Bromo-2,3,4,9-tetrahydro-1H-carbazol 1-yl)-3-phenyl-urea] was over 1000 nM; that for `NC1CCCc2c1[nH]c1cc(Br)ccc21` (centres unmarked) [Compound 94, 7-Bromo-2,3,4,9-tetrahydro-1H-carbazol-1-ylamine; compound with methane] was over 1000 nM; that for `Cc1ccc(C)n1C1CCCc2c1[nH]c1ccc(Br)cc21` (centres unmarked) [Compound 70, 6-Bromo-1-(2,5-dimethylpyrrol-1-yl)-2,3,4,9-tetrahydro-1H-carbazole] was 200 to 1000 nM.
Same read-out and setting: the same measure for `COc1ccc2[nH]c3c(c2c1)CCCC3n1cccc1` (centres unmarked) [Compound 56, 6-Methoxy-1-pyrrol-1-yl-2,3,4,9-tetrahydro-1H-carbazole]: 40 to 200 nM; for `COc1cccc(C(=O)NC2CCCc3c2[nH]c2ccc(Br)cc32)c1OC` (centres unmarked) [Compound 39, N-(6-Bromo-2,3,4,9-tetrahydro-1H-carbazol-1-yl)-2,3-dimethoxy-benzamide]: 40 to 200 nM.
On to `CN(C(=O)c1cccc(Cl)c1)C1CCCc2c1[nH]c1ccc(Br)cc21` (centres unmarked) [Compound 66, N-(6-Bromo-2,3,4,9-tetrahydro-1H-carbazol-1-yl)-3-chloro-N-methyl-benzamide], for which the EC50 is 200 to 1000 nM.
On the same count and under the same terms, the value for `O=C(NC1CCCc2c1[nH]c1ccc(Br)cc21)c1ccc(-c2ccc(Cl)cc2)o1` (centres unmarked) [Compound 125, 5-(4-Chloro-phenyl)-furan-2-carboxylic acid (6-bromo-2,3,4,9-tetrahydro-1H-carbazol-1-yl)-amide] was 40 to 200 nM; that for `Brc1ccc2[nH]c3c(c2c1)CCCC3n1cc2ccsc2c1` (centres unmarked) [Compound 1, 6-Bromo-1-thieno[2,3-c]pyrrol-5-yl-2,3,4,9-tetrahydro-1H-carbazole] was under 10 nM.
On the same count and under the same terms, the value for `Brc1ccc2c3c([nH]c2c1)C(n1cccc1)CCC3` (centres unmarked) [Compound 121, 7-Bromo-1-pyrrol-1-yl-2,3,4,9-tetrahydro-1H-carbazole] was over 1000 nM; that for `O=C(NC1CCCc2c1[nH]c1ccc(Br)cc21)c1cccnc1` (centres unmarked) [Compound 58, N-(6-Bromo-2,3,4,9-tetrahydro-1H-carbazol-1-yl)-nicotinamide] was 40 to 200 nM; that for `Clc1cccc(NC2CCCc3c2[nH]c2ccc(Br)cc32)c1` (centres unmarked) [Compound 20, (6-Bromo-2,3,4,9-tetrahydro-1H-carbol-1-yl)-(3-chloro-phenyl)-amine] was under 10 nM.
Still for that read-out and setting: the value for `COc1ccc(NC2CCCc3c2[nH]c2ccc(C(F)(F)F)cc32)cc1` (centres unmarked) [Compound 139, (4-Methoxy-phenyl)-(6-trifluoromethyl-2,3,4,9-tetrahydro-1H-carbazol-1-yl)-amine] was 10 to 40 nM; that for `O=C(NC1CCCc2c1[nH]c1ccc(Br)cc21)c1ccno1` (centres unmarked) [Compound 150, isoxazole-5-carboxylic acid (6-bromo-2,3,4,9-tetrahydro-1H-carbazol-1-yl)-amide] was 10 to 40 nM; that for `N#Cc1ccc(C(=O)NC2CCCc3c2[nH]c2ccc(Br)cc32)cc1` (centres unmarked) [Compound 132, N-(6-Bromo-2,3,4,9-tetrahydro-1H-carbazol-1-yl)-4-cyano-benzamide] was 10 to 40 nM.
`O=C(NC1CCCc2c1[nH]c1ccc(Br)cc21)c1ccccc1` (centres unmarked) [Compound 21, N-(6-Bromo-2,3,4,9-tetrahydro-1H-carbazol-1-yl)-benzamide]: the EC50 is under 10 nM.
Regarding `Cn1c2c(c3cc(Br)ccc31)CCCC2n1cccc1` (centres unmarked) [Compound 117, 6-Bromo-9-methyl-1-pyrrol-1-yl-2,3,4,9-tetrahydro-1H-carbazole], the EC50 was over 1000 nM.

Still in this test, the particulars now being: Homo sapiens, HeLa, compounds 191-239, hypoxic conditions, VEGF protein by ELISA, read-out: ELISA Activity EC50.
Consider `OC(COc1ccc(C2CCCc3c2[nH]c2ccc(Cl)cc32)cc1)CN1CCOCC1` (centres unmarked) [Compound 215], for which the EC50 fell in the range of 10 to 40 nM.
Take `CC(=O)N1CCN(CCCOc2ccc(C3CCCc4c3[nH]c3ccc(Br)cc43)cc2)CC1` (centres unmarked) [Compound 204]: the EC50 lay in the range of 10 to 40 nM.
For `Cc1cc(C(=O)NC2CCCc3c2[nH]c2ccc(Br)cc32)no1` (centres unmarked) [Compound 191], the EC50 is under 10 nM.
On the same count and under the same terms, the value for `OC(COc1ccc(C2CCCCc3c2[nH]c2ccc(Cl)cc32)cc1)CN1CCOCC1` (centres unmarked) [Compound 228] was 10 to 40 nM; that for `OC(COc1ccc(C2CCCc3c2[nH]c2ccc(Cl)cc32)cc1)CN1CCSCC1` (centres unmarked) [Compound 217] was 10 to 40 nM.
On to `Brc1ccc2[nH]c3c(c2c1)CCCC3c1ccc(OCCCn2ccnn2)cc1` (centres unmarked) [Compound 209], for which the EC50 was under 10 nM.
Regarding `CN1CCN(CC(O)COc2ccc(C3CCCc4c3[nH]c3ccc(Cl)cc43)cc2)CC1` (centres unmarked) [Compound 219], the EC50 was in the range of 10 to 40 nM.
Turning to `OC(COc1ccc(C2CCCc3c2[nH]c2ccc(Br)cc32)cc1)Cn1nccn1` (centres unmarked) [Compound 227], the EC50 was under 10 nM.
The same measure, in the same setting: the same measure for `COc1ccc(C2CCCCc3c2[nH]c2ccc(Cl)cc32)cc1` (centres unmarked) [Compound 229]: 10 to 40 nM.

Still in this test, the particulars now being: Homo sapiens, HeLa, purchased compounds 156-188, hypoxic conditions, VEGF protein by ELISA, read-out: ELISA Activity.
Take `Cc1ccc2c(c1)c1c3n2CCNC3CCC1` (centres unmarked) [Compound 169, 8-Methyl-2,3,3a,4,5,6-hexahydro-1H-pyrazino[3,2,1-jk]carbazole hydrochloride]: the EC50 was over 1000 nM.
For the compound `CC(=O)N1CCn2c3c(c4cc(C(=O)O)ccc42)CCCC31` (centres unmarked) [Compound 184, 3-Acetyl-2.3,3a,4,5,6-hexahydro-1H-pyrazino[3,2,1-jk]carbazole-8-carboxylic acid], the EC50 was over 1000 nM.
Consider `CC(=O)NC1CCCc2c1[nH]c1ccc(C)cc21` (centres unmarked) [Compound 178, N-(6-Methyl-2,3,4,9-tetrahydro-1H-carbazol-1-yl)-acetamide], for which the EC50 is over 1000 nM.
As for `O=[N+]([O-])c1ccc2[nH]c3c(c2c1)CCCC3NC1CCC(c2ccccc2)CC1` (centres unmarked) [Compound 157], the EC50 was in the range of 10 to 40 nM.
For `CC(=O)N1CCn2c3c(c4cc(C)ccc42)CCCC31` (centres unmarked) [Compound 175, 1-(8-Methyl-1,2,3a,4,5,6-hexahydro-pyrazino[3,2,1-jk]carbazol-3-yl)-ethanone], the EC50 is over 1000 nM.
On the same count and under the same terms, the value for `COC(CNC1CCCc2c1[nH]c1ccc(C)cc21)OC` (centres unmarked) [Compound 165, (2,2-Dimethoxy-ethyl)-(6-methyl-2,3,4,9-tetrahydro-1H-carbazol-1-yl)-amine] was over 1000 nM.

The test is the same for the next values; noted with them: Homo sapiens, HeLa, purchased compounds 156-188, hypoxic conditions, VEGF protein by ELISA, read-out: ELISA EC50.
In the case of `Cc1ccc2c(c1)c1c3n2CCNC3CCC1` (centres unmarked) [Compound 169, 8-Methyl-2,3,3a,4,5,6-hexahydro-1H-pyrazino[3,2,1-jk]carbazole hydrochloride], the EC50 is over 10000 nM.
On the same count and under the same terms, the value for `CC(=O)N1CCn2c3c(c4cc(C(=O)O)ccc42)CCCC31` (centres unmarked) [Compound 184, 3-Acetyl-2.3,3a,4,5,6-hexahydro-1H-pyrazino[3,2,1-jk]carbazole-8-carboxylic acid] was over 10000 nM; that for `CC(=O)NC1CCCc2c1[nH]c1ccc(C)cc21` (centres unmarked) [Compound 178, N-(6-Methyl-2,3,4,9-tetrahydro-1H-carbazol-1-yl)-acetamide] was over 10000 nM; that for `O=[N+]([O-])c1ccc2[nH]c3c(c2c1)CCCC3NC1CCC(c2ccccc2)CC1` (centres unmarked) [Compound 157] was 14.9 nM.
In the case of `CC(=O)N1CCn2c3c(c4cc(C)ccc42)CCCC31` (centres unmarked) [Compound 175, 1-(8-Methyl-1,2,3a,4,5,6-hexahydro-pyrazino[3,2,1-jk]carbazol-3-yl)-ethanone], the EC50 is over 10000 nM.
Still for that read-out and setting: the same measure for `COC(CNC1CCCc2c1[nH]c1ccc(C)cc21)OC` (centres unmarked) [Compound 165, (2,2-Dimethoxy-ethyl)-(6-methyl-2,3,4,9-tetrahydro-1H-carbazol-1-yl)-amine]: 5200 nM.
